“Also recorded” adds a separate entry of the source. Read-outs that look alike come from different tables or passages of the source. One block for each compound: values may come before it. Residues, ends and D or L forms follow the SMILES beside them. *: point of attachment. Cbz = O=C(OCc1ccccc1)*
Key:
TMD8 = experiment: MTT proliferation assay, TMD8; format: cell-based; settings: Homo sapiens, TMD8, 72 h treatment, n = 2, read-out: IC50 (cell proliferation)
Description: (§1) Lymphoma cell lines were exposed to a large range of concentrations of each compound as single agent for 24 h or 72 h, followed by MTT and after 4 h SDS to stop the reaction. The day after, plates were read using a Cytation 3 plate reader (Biotek) and IC50s were calculated. DMSO was used as a control (untreated). IC50 is defined as the drug concentration giving 50% of proliferating cells compared to vehicle treated cells. IC50 was calculated by fitting the values via nonlinear regression (GraphPad Prism 8.0). Values represent mean ± S.D.

[1] = system: SU‐DHL‐2, SU‐DHL‐16, TMD8, and WSU‐DLCL2; experiment: MTT proliferation assay, additional DLBCL cell lines (summary); format: cell-based; settings: 72 h, range over DLBCL cell lines and both compounds, read-out: viability IC50, range over cell lines
Description: as §1

SU‐DHL‐16 = experiment: MTT proliferation assay, SU‐DHL‐16; format: cell-based; settings: Homo sapiens, SU‐DHL‐16, 72 h treatment, n = 2, read-out: IC50 (cell proliferation)
Description: as §1

p300 [2] = target: T1, p300 (Homo sapiens, UniProt Q09472); experiment: p300 catalytic activity inhibition; format: biochemical; settings: means ± S.D., n = 3
T1 sequence (Q09472 whole entry): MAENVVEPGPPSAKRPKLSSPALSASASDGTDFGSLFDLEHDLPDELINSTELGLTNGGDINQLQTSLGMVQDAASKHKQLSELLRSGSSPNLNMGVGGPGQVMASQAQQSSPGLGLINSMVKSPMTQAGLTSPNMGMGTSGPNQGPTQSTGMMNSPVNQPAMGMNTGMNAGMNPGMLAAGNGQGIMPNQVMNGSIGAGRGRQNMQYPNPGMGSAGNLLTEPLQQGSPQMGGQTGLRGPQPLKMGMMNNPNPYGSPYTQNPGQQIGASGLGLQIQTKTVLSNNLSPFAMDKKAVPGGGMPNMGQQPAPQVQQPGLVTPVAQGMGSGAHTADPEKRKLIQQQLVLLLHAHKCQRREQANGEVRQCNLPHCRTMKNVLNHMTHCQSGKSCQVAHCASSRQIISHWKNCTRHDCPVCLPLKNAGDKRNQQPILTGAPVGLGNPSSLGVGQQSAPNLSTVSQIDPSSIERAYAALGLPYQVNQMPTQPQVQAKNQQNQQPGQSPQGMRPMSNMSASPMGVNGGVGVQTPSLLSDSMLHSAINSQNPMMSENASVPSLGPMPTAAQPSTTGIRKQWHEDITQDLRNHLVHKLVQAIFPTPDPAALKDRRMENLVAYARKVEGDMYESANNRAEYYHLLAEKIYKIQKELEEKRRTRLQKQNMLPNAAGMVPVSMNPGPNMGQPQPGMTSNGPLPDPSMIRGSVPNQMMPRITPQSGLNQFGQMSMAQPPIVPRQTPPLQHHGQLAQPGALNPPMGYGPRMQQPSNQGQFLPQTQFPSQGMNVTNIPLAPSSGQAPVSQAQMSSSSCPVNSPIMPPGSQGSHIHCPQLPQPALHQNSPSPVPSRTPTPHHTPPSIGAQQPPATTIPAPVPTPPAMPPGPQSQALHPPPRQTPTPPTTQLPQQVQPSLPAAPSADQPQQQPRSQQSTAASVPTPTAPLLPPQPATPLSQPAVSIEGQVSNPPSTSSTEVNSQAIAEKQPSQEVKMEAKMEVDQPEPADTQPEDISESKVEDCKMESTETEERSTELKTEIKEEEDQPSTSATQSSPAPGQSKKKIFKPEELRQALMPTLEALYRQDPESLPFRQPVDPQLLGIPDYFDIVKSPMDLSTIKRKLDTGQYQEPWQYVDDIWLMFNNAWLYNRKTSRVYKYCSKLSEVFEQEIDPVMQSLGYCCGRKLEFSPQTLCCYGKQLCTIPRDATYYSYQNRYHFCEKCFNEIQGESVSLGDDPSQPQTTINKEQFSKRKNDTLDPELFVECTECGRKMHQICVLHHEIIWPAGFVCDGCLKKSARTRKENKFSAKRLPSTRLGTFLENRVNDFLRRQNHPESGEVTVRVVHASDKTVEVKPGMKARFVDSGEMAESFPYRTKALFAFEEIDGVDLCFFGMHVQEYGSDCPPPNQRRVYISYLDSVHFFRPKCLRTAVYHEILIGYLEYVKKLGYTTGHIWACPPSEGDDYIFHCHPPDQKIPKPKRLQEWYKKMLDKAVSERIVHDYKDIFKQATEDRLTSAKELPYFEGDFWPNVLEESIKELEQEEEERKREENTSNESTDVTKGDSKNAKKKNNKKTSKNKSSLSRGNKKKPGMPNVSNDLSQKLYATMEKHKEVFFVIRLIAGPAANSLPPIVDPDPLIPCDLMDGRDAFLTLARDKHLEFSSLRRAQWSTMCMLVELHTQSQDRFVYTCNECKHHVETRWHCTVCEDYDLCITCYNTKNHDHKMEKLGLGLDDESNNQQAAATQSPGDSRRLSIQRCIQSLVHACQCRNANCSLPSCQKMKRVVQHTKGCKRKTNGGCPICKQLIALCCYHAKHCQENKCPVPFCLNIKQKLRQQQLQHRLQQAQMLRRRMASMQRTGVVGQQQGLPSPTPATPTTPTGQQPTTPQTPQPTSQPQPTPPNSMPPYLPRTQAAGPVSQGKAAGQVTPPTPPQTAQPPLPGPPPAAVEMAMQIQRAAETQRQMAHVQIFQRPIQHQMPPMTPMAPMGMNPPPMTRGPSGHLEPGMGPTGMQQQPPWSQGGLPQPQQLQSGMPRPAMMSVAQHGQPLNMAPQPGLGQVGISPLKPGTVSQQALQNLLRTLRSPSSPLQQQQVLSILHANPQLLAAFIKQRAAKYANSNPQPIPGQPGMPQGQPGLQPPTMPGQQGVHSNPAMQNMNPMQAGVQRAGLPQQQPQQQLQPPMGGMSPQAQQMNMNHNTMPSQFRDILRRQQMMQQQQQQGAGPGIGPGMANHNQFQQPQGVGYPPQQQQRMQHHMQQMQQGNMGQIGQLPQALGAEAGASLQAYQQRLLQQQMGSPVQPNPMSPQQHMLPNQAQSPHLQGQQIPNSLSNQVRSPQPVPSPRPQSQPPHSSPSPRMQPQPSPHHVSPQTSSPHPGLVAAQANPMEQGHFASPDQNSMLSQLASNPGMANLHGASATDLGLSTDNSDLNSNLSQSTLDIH
Source text: (§2) To answer this question, we initially characterized them both for their inhibition of CBP and p300 catalytic activities.

SU‐DHL‐10 cells = experiment: MTT proliferation assay, SU‐DHL‐10; format: cell-based; settings: for IC50: Homo sapiens, n = 2, read-out: IC50 (cell proliferation)
Description: as §1

SU‐DHL‐2 = experiment: MTT proliferation assay, SU‐DHL‐2; format: cell-based; settings: Homo sapiens, SU‐DHL‐2, 72 h treatment, n = 2, read-out: IC50 (cell proliferation)
Description: as §1

p300 [3] = target: T1, p300; experiment: Western blot of p300 levels in SU‐DHL‐10 cells; format: cell-based; set-up: WB analysis of p300 levels in the SU‐DHL‐10 cell line; endogenous in cells; host or cells: SU-DHL-10; settings: for p300 protein levels (WB): SU‐DHL‐10, increasing concentrations
Description: (§3) Following compound treatment for the indicated time frame (4 to 24 h), cells were solubilized, and the protein content was determined using the BCA protein assay (Pierce Chemical Co). Lysates were fractionated by SDS–polyacrylamide gel electrophoresis (SDS‐PAGE). Membranes were incubated with anti‐CBP (CBP (D6C5) Rabbit mAb #7389, Cell Signaling Technology), anti‐p300 (Anti‐KAT3B/p300 antibody (3G230), Abcam) or anti‐GAPDH (GAPDH Monoclonal Antibody (FF26A), Thermo Fisher Scientific) antibodies overnight. This was followed by incubation with the appropriate horseradish peroxidase‐conjugated anti‐mouse or anti‐rabbit secondary antibodies (Cytiva Europe) for 1 h. Enhanced chemiluminescence detection was then done following the manufacturer's instructions. GAPDH was used as a loading control. Images were quantified with the internal software of the Fusion Solo S (Vilber).

CBP [4] = target: T2, CBP (Homo sapiens, UniProt Q92793); experiment: CBP catalytic activity inhibition; format: biochemical; settings: means ± S.D., n = 3
T2 sequence (Q92793 whole entry): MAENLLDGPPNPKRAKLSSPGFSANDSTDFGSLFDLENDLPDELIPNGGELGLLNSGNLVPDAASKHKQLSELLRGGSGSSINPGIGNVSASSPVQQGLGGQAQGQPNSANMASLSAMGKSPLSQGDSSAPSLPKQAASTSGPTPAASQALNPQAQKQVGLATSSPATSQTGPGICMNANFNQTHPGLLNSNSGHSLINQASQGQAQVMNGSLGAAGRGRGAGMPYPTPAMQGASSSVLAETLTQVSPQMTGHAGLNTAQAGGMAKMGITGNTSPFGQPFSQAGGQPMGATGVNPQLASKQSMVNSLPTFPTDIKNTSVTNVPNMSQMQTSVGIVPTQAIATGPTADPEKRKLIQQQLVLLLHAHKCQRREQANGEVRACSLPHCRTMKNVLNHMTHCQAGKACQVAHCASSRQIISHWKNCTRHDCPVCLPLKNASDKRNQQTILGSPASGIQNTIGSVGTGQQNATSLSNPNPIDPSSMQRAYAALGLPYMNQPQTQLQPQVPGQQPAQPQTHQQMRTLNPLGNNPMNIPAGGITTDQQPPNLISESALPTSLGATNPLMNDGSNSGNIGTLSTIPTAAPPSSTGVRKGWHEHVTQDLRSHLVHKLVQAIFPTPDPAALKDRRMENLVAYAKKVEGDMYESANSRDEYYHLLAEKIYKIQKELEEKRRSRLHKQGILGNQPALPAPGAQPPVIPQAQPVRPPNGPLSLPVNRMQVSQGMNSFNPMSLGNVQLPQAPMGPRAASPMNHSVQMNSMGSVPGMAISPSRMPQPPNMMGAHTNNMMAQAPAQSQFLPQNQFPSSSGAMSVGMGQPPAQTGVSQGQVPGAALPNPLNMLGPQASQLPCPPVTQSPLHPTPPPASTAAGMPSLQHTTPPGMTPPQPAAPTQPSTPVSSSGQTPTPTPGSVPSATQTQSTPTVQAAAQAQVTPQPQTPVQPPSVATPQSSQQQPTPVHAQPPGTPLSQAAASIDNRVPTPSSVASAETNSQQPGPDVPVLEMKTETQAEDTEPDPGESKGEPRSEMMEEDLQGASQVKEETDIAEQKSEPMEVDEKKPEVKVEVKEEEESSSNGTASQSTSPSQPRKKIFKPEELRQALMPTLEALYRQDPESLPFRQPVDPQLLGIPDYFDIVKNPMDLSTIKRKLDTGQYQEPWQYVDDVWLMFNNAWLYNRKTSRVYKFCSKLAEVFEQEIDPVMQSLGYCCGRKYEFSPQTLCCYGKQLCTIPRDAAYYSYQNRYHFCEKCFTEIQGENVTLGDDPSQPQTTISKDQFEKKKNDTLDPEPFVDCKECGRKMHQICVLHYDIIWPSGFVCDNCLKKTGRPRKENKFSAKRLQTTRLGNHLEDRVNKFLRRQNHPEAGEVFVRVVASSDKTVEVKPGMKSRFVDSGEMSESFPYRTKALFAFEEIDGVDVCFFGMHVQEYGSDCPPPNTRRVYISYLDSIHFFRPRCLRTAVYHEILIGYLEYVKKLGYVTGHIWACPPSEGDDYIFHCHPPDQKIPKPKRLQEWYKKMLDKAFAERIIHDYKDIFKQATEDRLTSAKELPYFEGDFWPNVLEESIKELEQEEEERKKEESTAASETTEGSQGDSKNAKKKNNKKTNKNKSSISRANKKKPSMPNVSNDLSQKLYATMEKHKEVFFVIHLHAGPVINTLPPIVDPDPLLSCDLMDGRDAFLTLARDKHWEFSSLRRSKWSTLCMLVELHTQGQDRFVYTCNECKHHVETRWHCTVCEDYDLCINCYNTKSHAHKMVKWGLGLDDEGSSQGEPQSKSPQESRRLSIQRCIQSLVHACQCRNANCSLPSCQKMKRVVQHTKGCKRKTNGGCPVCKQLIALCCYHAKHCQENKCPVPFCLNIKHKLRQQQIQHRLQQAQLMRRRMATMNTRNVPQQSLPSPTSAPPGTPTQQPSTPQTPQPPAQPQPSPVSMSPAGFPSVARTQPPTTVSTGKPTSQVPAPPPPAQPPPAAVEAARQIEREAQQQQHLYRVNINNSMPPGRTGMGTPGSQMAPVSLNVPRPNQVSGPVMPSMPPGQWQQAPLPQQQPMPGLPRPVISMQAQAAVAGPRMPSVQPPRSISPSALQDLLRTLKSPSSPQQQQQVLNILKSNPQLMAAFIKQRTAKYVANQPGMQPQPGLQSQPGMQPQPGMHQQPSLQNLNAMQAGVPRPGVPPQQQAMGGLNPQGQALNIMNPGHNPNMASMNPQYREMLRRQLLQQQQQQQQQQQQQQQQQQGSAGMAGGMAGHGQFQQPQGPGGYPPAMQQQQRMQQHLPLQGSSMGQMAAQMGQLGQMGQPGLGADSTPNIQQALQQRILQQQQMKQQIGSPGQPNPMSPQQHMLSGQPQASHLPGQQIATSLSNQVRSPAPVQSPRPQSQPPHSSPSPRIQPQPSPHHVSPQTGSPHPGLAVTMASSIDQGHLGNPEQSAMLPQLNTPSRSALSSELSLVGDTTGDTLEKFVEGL
Source text: as §2

CBP [5] = target: T2, CBP; experiment: Western blot of CBP levels in SU‐DHL‐10 cells; format: cell-based; set-up: WB analysis of CBP levels in the DLBCL SU‐DHL‐10 cell line; endogenous in cells; host or cells: SU-DHL-10
Description: as §3

WSU‐DLCL2 = experiment: MTT proliferation assay, WSU‐DLCL2; format: cell-based; settings: Homo sapiens, WSUDLCL2, WSU‐DLCL2, 72 h treatment, n = 2, read-out: IC50 (cell proliferation)
Description: as §1

H3K27 acetylation = experiment: Western blot of H3K27ac levels in SU‐DHL‐10 cells; format: cell-based; settings: 24 h
neuroblastoma cell = system: neuroblastoma cell; set-up: method as in PMID 34772733; settings: cited from earlier work
[6] = system: histone deacetylases (HDACs); set-up: method as in PMID 26718586; settings: cited from earlier work
[7] = SU-DHL10, SU‐DHL‐10, 24 h treatment
[8] = SU-DHL10, SU‐DHL‐10, 72 h treatment

Compound: O=C1CCC(N2C(=O)c3ccccc3C2=O)C(=O)N1 (centres unmarked) [Thalidomide, thalidomide, reference compound]
IC50 (SU‐DHL‐10 cells; [7]): > 20 µM
effect on cell viability (SU‐DHL‐10 cells; SU‐DHL‐10, 24 h, up to 20 μM): no significant effects on cell viability

Compound: CNC(=O)Nc1ccc2c(c1)CC[C@@]21OC(=O)N(CC(=O)N(Cc2ccc(F)cc2)[C@@H](C)C(F)(F)F)C1=O [Compound A485, A‐485]
H3K27 acetylation (H3K27 acetylation; SU‐DHL‐10, 5 and 10 μM): reduced H3K27 acetylation in a dose‐dependent fashion

Compound: CC(C)C[C@@H](C=O)NC(=O)[C@H](CC(C)C)NC(=O)[C@H](CC(C)C)NC(=O)OCc1ccccc1 [MG132, reference compound] (Cbz-Leu-Leu-Leu-aldehyde)
IC50 (SU‐DHL‐10 cells; [7]): 0.144 ± 0.002 µM

Further lines, with some results ahead:

IC50 (p300 [2]): 0.6 to 0.9 µM
p300 levels (WB) (p300 [3]; SU‐DHL‐10, 2.5 μM, 8 h): decreased protein levels
p300 levels (WB) (p300 [3]; SU‐DHL‐10, 2.5 μM, 24 h): no difference was observed
p300 levels (WB) (p300 [3]; SU‐DHL‐10, 10 μM, 24 h): significantly reduced p300 levels
IC50 (CBP [4]): 0.6 to 0.9 µM
CBP levels (WB) (CBP [5]; SU‐DHL‐10, 2.5 μM, 8 h): slightly less active
CBP levels (WB) (CBP [5]; SU‐DHL‐10, 2.5 μM, 24 h): returned to the initial levels
decrease of protein (CBP) levels (CBP [5]; SU‐DHL‐10, 10 μM, 24 h): roughly 70%
Compound: CC1=NN(c2ccc(C(=O)NCCOCCOCCNC(=O)COc3cccc4c3C(=O)N(C3CCC(=O)NC3=O)C4=O)cc2)C(=O)/C1=C\c1ccc(-c2cc(C)c(C)cc2[N+](=O)[O-])o1 (centres unmarked) [Compound 2, (Z)‐4‐(4‐((5‐(4,5‐dimethyl‐2‐nitrophenyl)furan‐2‐yl)methylene)‐3‐methyl‐5‐oxo‐4,5‐dihydro‐1 H‐pyrazol‐1‐yl)‐N‐(2‐(2‐(2‐(2‐((2‐(2,6‐dioxopiperidin‐3‐yl)‐1,3‐dioxoisoindolin‐4‐yl)oxy)acetamido)ethoxy)ethoxy)ethyl)benzamide]
IC50 (TMD8): 7.81 ± 3.04 µM
IC50 [1]: 2 to 8 µM
IC50 (SU‐DHL‐16): 8.02 ± 2.46 µM
IC50 (SU‐DHL‐10 cells; [7]): 6.44 ± 0.81 µM
IC50 (SU‐DHL‐10 cells; [8]): 6.34 ± 1.76 µM
IC50 (SU‐DHL‐2): 4.96 ± 0.33 µM
IC50 (WSU‐DLCL2): 5.23 ± 0.85 µM

IC50 (p300 [2]): 0.6 to 0.9 µM
p300 levels (WB) (p300 [3]; SU‐DHL‐10, 2.5 μM, 8 h): decreased protein levels
p300 levels (WB) (p300 [3]; SU‐DHL‐10, 2.5 μM, 24 h): no difference was observed
p300 levels (WB) (p300 [3]; SU‐DHL‐10, 10 μM, 24 h): significantly reduced p300 levels
p300 protein levels (WB) (p300 [3]; 24 h): dose‐dependent reduction
IC50 (CBP [4]): 0.6 to 0.9 µM
CBP levels (WB) (CBP [5]; SU‐DHL‐10, 2.5 μM, 24 h): returned to the initial levels
decrease of protein (CBP) levels (CBP [5]; SU‐DHL‐10, 10 μM, 24 h): roughly 70%
CBP levels (WB), combination with C646 (CBP [5]; SU‐DHL‐10, 1 2.5 μM + C646 10 μM, 8 h): did not affect CBP levels
CBP degradation (WB), co‐incubation with MG132 (CBP [5]; SU‐DHL‐10, 1 2.5 μM + MG132 10 μM, 8 h): abolishes 1‐induced CBP degradation
Compound: CC1=NN(c2ccc(C(=O)NCCCOCCOCCOCCCNC(=O)COc3cccc4c3C(=O)N(C3CCC(=O)NC3=O)C4=O)cc2)C(=O)/C1=C\c1ccc(-c2cc(C)c(C)cc2[N+](=O)[O-])o1 (centres unmarked) [Compound 1, (Z)‐4‐(4‐((5‐(4,5‐dimethyl‐2‐nitrophenyl)furan‐2‐yl)methylene)‐3‐methyl‐5‐oxo‐4,5‐dihydro‐1 H‐pyrazol‐1‐yl)‐N‐(1‐((2‐(2,6‐dioxopiperidin‐3‐yl)‐1,3‐dioxoisoindolin‐4‐yl)oxy)‐2‐oxo‐7,10,13‐trioxa‐3‐azahexadecan‐16‐yl)benzamide]
IC50 (TMD8): 1.95 ± 0.069 µM
IC50 [1]: 2 to 8 µM
IC50 (SU‐DHL‐16): 2.99 ± 0.19 µM
IC50 (SU‐DHL‐10 cells; [7]): 3.44 ± 0.12 µM
IC50 (SU‐DHL‐10 cells; [8]): 2.73 ± 0.072 µM
IC50 (SU‐DHL‐2): 2.05 ± 0.068 µM
CBP levels (WB) (CBP [5]; SU‐DHL‐10, 2.5 μM, 8 h): reduced the levels of CBP; also recorded: decreased the levels of CBP
CBP protein levels (WB) (CBP [5]; SU‐DHL‐10, increasing concentrations, 24 h): dose‐dependent reduction; also recorded: slightly better efficacy on CBP compared to the previously reported PROTAC JQAD1
IC50 (WSU‐DLCL2): 3.24 ± 0.28 µM
H3K27 acetylation (H3K27 acetylation; SU‐DHL‐10, 5 μM): decreased H3K27 acetylation

p300 protein levels (WB) (p300 [3]; 24 h): slightly higher potency
Compound: JQAD1
IC50, neuroblastoma cell viability (neuroblastoma cell): nanomolar range
H3K27 acetylation (H3K27 acetylation; SU‐DHL‐10, 5 and 10 μM): reduced H3K27 acetylation in a dose‐dependent fashion

IC50 (CBP [4]): 0.21 ± 0.01 µM
CBP levels (WB) (CBP [5]; SU‐DHL‐10, 10 μM, 8 h): no effect on CBP levels
Compound: CC1=NN(c2ccc(C(=O)O)cc2)C(=O)/C1=C\c1ccc(-c2cc(C)c(C)cc2[N+](=O)[O-])o1 [Compound C646, C646, reference compound]
inhibition of histone deacetylases (HDACs) [6]: inhibit histone deacetylases (HDACs) at low micromolar concentrations
IC50 (SU‐DHL‐10 cells; [7]): 12.2 ± 3.02 µM
H3K27 acetylation (H3K27 acetylation; SU‐DHL‐10, 5 and 10 μM): did not reduce acetylation
